Patent US20250134867A1, “METHOD FOR MODULATING LIPID METABOLISM, AMELIORATING NON-ALCOHOLIC FATTY LIVER DISEASE AND METABOLIC SYNDROME BY USING 6-METHOXYBENZOXAZOLINONE” (Taichung District Agricultural Research and Extension …, priority 2023, published 2025)

Assays:
Assay type in all cases: in vivo
[1] = system: HFD-induced obese C57BL/6J mice; assay: Liver fat deposition and liver damage markers (NAFLD) in HFD-induced obese mice; conditions: for liver weight / ratio of liver weight and body weight / lipid accumulation in the liver tissue (H&E and Oil Red O staining) / hepatic cholesterol (TC) level / hepatic triglyceride (TG) level: HFD mice, 12 weeks oral; for liver weight: CX 10 and 30 mg/kg/day, EGCG 30 mg/kg/day; for ratio of liver weight and body weight: among all groups; for lipid accumulation in the liver tissue (H&E and Oil Red O staining): normal morphology of liver cells maintained; for hepatic cholesterol (TC) level / hepatic triglyceride (TG) level: vs HFD; for serum albumin (ALB) level: compared with ND group, HFD group significantly higher
Description: The animals used in the examples are described below. 5-week-old male C57BL/6J mice were purchased from The National Laboratory Animal Center, Taipei, Taiwan and were maintained in a temperature-controlled room on a 12-h light-dark cycle. They were housed with four per cage and had free access to food and drinking water. Mice fed with a standard diet and adapted to the environment for 1 week were subsequently divided randomly into five groups. The ND group (n=8) continued on the same diet, whereas the other four groups (n=8 per group) were switched to the HFD (494 kcal/100 g, 45% energy as fat; TestDiet Inc., USA). Among the four HFD groups, three groups started to receive CX at 10 mg/kg/day (CX10 group), CX at 30 mg/kg/day (CX30 group), and epigallocatechin gallate (EGCG) (Sigma, Inc., USA) at 30 mg/kg/day (EGCG30 group) by oral gavage. EGCG was suspended in 0.5% methylcellulose solution for oral administration. Food consumption and weight gain were measured daily and weekly, respectively. After 12 weeks, all mice were sacrificed. Serum samples, liver tissue, epididymis adipose tissue and feces were harvested for further analysis. The experimental protocol was approved by the Animal Research Committee of the National Yang Ming Chiao Tung University (IACUC no. 1091013), and all procedures followed The Guide for the Care and Use of Laboratory Animals (NIH publication, 85-23, revised 1996) and the guidelines of the Animal Welfare Act, Taiwan. The procedure regarding immunohistochemical tissue characterization is as follows. During dissection of the mice, epididymis adipose tissue and liver were isolated, weighed, and subsequently fixed in 10% paraformaldehyde in PBS. After overnight fixation, tissues were embedded in paraffin for hematoxylin and eosin (H&E) staining. All specimens were observed microscopically (Carl Zeiss Inc., Germany) at 200× magnification. […] The procedure regarding biochemical characterization is as follows. The serum triglyceride (TG), total cholesterol (TC), high-density lipoprotein-cholesterol (HDL-C), glutamic oxaloacetic transaminase (GOT), glutamic pyruvic transaminase (GPT), albumin (ALB), uric acid (UA), and creatinine (CRE) levels were measured using enzymatic assay kits with a FUJI DRI-CHEM analyzer (Fujifilm, Tokyo, Japan). The LDL-C level was calculated as [(TC)-(HDL-C)-(TG/5)]. The procedure regarding triglyceride and cholesterol analysis of liver tissue is as follows. For triglyceride and cholesterol determinations, mouse liver tissues were extracted and analyzed using triglyceride and cholesterol quantitation assay kits (Abcam, UK), respectively, according to the manufacturer's instruction.

[2] = system: HFD-induced obese C57BL/6J mice; assay: Renal function markers in HFD-induced obese mice; conditions: for serum CRE level, difference to ND group: 30 mg/kg/day oral, CX30, ND and EGCG groups compared; for serum CRE level, difference to ND group / serum uric acid (UA) level, difference to ND group: 12 weeks; for serum uric acid (UA) level, difference to ND group: CX 10-30 mg/kg/day, EGCG 30 mg/kg/day oral, compared with ND group
Description: (§1) The animals used in the examples are described below. 5-week-old male C57BL/6J mice were purchased from The National Laboratory Animal Center, Taipei, Taiwan and were maintained in a temperature-controlled room on a 12-h light-dark cycle. They were housed with four per cage and had free access to food and drinking water. Mice fed with a standard diet and adapted to the environment for 1 week were subsequently divided randomly into five groups. The ND group (n=8) continued on the same diet, whereas the other four groups (n=8 per group) were switched to the HFD (494 kcal/100 g, 45% energy as fat; TestDiet Inc., USA). Among the four HFD groups, three groups started to receive CX at 10 mg/kg/day (CX10 group), CX at 30 mg/kg/day (CX30 group), and epigallocatechin gallate (EGCG) (Sigma, Inc., USA) at 30 mg/kg/day (EGCG30 group) by oral gavage. EGCG was suspended in 0.5% methylcellulose solution for oral administration. Food consumption and weight gain were measured daily and weekly, respectively. After 12 weeks, all mice were sacrificed. Serum samples, liver tissue, epididymis adipose tissue and feces were harvested for further analysis. The experimental protocol was approved by the Animal Research Committee of the National Yang Ming Chiao Tung University (IACUC no. 1091013), and all procedures followed The Guide for the Care and Use of Laboratory Animals (NIH publication, 85-23, revised 1996) and the guidelines of the Animal Welfare Act, Taiwan. The procedure regarding biochemical characterization is as follows. The serum triglyceride (TG), total cholesterol (TC), high-density lipoprotein-cholesterol (HDL-C), glutamic oxaloacetic transaminase (GOT), glutamic pyruvic transaminase (GPT), albumin (ALB), uric acid (UA), and creatinine (CRE) levels were measured using enzymatic assay kits with a FUJI DRI-CHEM analyzer (Fujifilm, Tokyo, Japan). The LDL-C level was calculated as [(TC)-(HDL-C)-(TG/5)].

[3] = system: HFD-induced obese C57BL/6J mice; assay: Fasting blood glucose, IPGTT and insulin resistance in HFD-induced obese mice; conditions: for fasting blood glucose: since the second week, 16 h fasting; for insulin resistance index HOMA-IR / fasting insulin concentration (insulin expression): 12 weeks; for insulin resistance index HOMA-IR: compared with the HFD group; for fasting insulin concentration (insulin expression): serum; for AUC of IPGTT: week 12, glucose 1.0 g/kg i.p., vs HFD group
Description: as §1, with “regarding blood glucose and intraperitoneal glucose tolerance test (IPGTT)” for “regarding biochemical characterization”, “follows. After a 16 h overnight fasting period, whole-blood glucose was measured with a glucose analyzer ([…], Taiwan). An enzymatic assay was used to measure the” for “follows. The”, “serum insulin concentration (Cisbio, USA). Intraperitoneal glucose tolerance tests (IPGTTs) were performed in all mice 12 weeks after the start of the study. Mice fasted for 16 h were injected intraperitoneally with glucose 1.0 g/kg body weight, blood glucose” for “serum triglyceride (TG), total cholesterol (TC), high-density lipoprotein-cholesterol (HDL-C), glutamic oxaloacetic transaminase (GOT), glutamic pyruvic transaminase (GPT), albumin (ALB), uric acid (UA), and creatinine (CRE)”, “measured in tail vain blood at 0, 30, 60, 90, 120 and 150 min.” for “measured using enzymatic assay kits with a FUJI DRI-CHEM analyzer (Fujifilm, Tokyo, Japan). The LDL-C level was calculated as [(TC)-(HDL-C)-(TG/5)].”

[4] = CX at both supplementations (10 and 30 mg/kg/day), 12 weeks
[5] = CX treatment vs HFD group, 12 weeks oral

Compound	liver weight [1]	ratio of liver weight and body weight [1]	lipid accumulation in the liver tissue (H&E and Oil Red O staining) [1]	hepatic cholesterol (TC) level [1]	hepatic triglyceride (TG) level [1]	serum albumin (ALB) level [1]	serum CRE level, difference to ND group [2]	serum uric acid (UA) level, difference to ND group [2]	fasting blood glucose ([3]; 30 mg/kg/day oral)	serum GOT (HFD-induced high level) [1, 4]	serum GPT (HFD-induced high level) [1, 4]	serum creatinine (CRE) level [2, 5]	serum uric acid (UA) level [2, 5]	insulin resistance index HOMA-IR ([3]; 10 mg/kg/day oral)	fasting insulin concentration (insulin expression) ([3]; 10 mg/kg/day oral)	fasting blood glucose ([3]; 10 mg/kg/day oral)	AUC of IPGTT ([3]; 10 mg/kg/day oral)	insulin resistance index HOMA-IR ([3]; 30 mg/kg/day oral)	fasting insulin concentration (insulin expression) ([3]; 30 mg/kg/day oral)	AUC of IPGTT ([3]; 30 mg/kg/day oral)
O=C(O[C@@H]1Cc2c(O)cc(O)cc2O[C@@H]1c1cc(O)c(O)c(O)c1)c1cc(O)c(O)c(O)c1 [EGCG, epigallocatechin gallate, reference compound]	significantly lower than HFD group	did not differ among all groups	greatly ameliorated	much lower	much lower	no difference	no significant difference	no significant difference	stable and significantly lower than the HFD group	–	–	–	–	–	–	–	–	–	–	–
COc1ccc2[nH]c(=O)oc2c1 [CX, 6-methoxybenzoxazolinone]	significantly lower than HFD group	did not differ among all groups	greatly ameliorated	much lower	much lower	no difference	no significant difference	no significant difference	stable and significantly lower than the HFD group	significantly prevented	significantly prevented	decreased	decreased	significantly lower	significantly lower than that of the HFD group	stable and significantly lower than the HFD group	significantly decreased	significantly lower	significantly lower than that of the HFD group	significantly decreased
